Measurements taken from patent US8415469B2, “Compounds and methods for kinase modulation, and indications therefor” (Plexxikon Inc., priority 2005, dated 2013).

Key:
Assay type in all cases: biochemical
[1] = target: T1, B-Raf (Homo sapiens, UniProt P15056); assay: AlphaScreen kinase assay, B-Raf; conditions: read-out: IC50, activity toward kinase B-Raf
T1 construct: purchased Upstate Biotechnology

[2] = target: T2, Ret (Homo sapiens, UniProt P07949); assay: AlphaScreen kinase assay, Ret; conditions: read-out: IC50, activity toward kinase Ret
T2 construct: P1378.pET-SF BI-PTP RET H661-R1012 HIS; made in house
T2 sequence (P07949 with tags, fused parts or gaps): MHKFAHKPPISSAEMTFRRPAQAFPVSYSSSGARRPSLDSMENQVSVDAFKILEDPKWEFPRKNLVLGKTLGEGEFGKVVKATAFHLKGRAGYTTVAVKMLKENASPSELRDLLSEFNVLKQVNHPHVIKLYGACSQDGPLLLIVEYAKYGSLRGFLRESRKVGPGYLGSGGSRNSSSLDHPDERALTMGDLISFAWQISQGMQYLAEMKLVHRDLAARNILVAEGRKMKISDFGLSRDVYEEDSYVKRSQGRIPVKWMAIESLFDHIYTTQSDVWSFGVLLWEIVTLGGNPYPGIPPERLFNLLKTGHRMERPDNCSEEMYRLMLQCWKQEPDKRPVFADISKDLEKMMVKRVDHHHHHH

[3] = target: T3, c-Raf-1 (Homo sapiens, UniProt P04049); assay: AlphaScreen kinase assay, c-Raf-1; conditions: read-out: IC50, activity toward kinase c-Raf-1
T3 construct: purchased Upstate Biotechnology

[4] = target: T4, Jnk2 (Homo sapiens, UniProt P45984); assay: AlphaScreen kinase assay, Jnk2; conditions: read-out: IC50, activity toward kinase Jnk2
T4 construct: purchased Roche Protein Expression Group (Indianapolis, IN)
Method in brief: (§1)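 Emission from acceptor beads reports phosphorylated biotin-peptide bridging antibody-coated acceptor and streptavidin donor beads; loss of signal reflects kinase inhibition. Eight-point, threefold dilution series prepared from 20 mM DMSO stocks.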

[5] = target: T5, B-Raf V600E (Homo sapiens, UniProt P15056, V600E); assay: AlphaScreen kinase assay, B-Raf V600E; conditions: read-out: IC50, activity toward kinase B-Raf V600E
T5 construct: P4254. pFastBacBD-CDC37 BRAF D437-K722-X, V600E; His6 with pFastBac HT leader (TEV site) (N); made in house; host or cells: Sf9 (baculovirus; chaperone CDC37 co-expressed)

[6] = target: T6, Met (Homo sapiens, UniProt P08581); assay: AlphaScreen kinase assay, Met; conditions: read-out: IC50, activity toward kinase Met
T6 construct: P1818.pETN6 BI-PTP MET G1056-G1364-X WT; His6 (N); made in house; host or cells: E. coli (PTP1B co-expressed)
Source text: AlphaScreen assay was used to screen additional kinases. The assay is similarly dependent on the phosphorylation of a peptide substrate. In this assay, an antibody that recognizes phosphorylated substrate is bound to an acceptor bead. The peptide substrate is attached to biotin, which binds to a donor head that contains streptavidin. Thus phosphorylated substrate is bound by antibody and streptavidin, bringing the donor and acceptor heads into close proximity when kinase is not inhibited. The donor produces singlet oxygen which results in emission from the acceptor when they are in close proximity. Conversely, when kinase is inhibited, the donor and acceptor beads are not associated and the emission from the acceptor is reduced.
AlphaScreen assays were done using compounds dissolved in DMSO to a concentration of 20 mM. The compounds were diluted accordingly to the desired final concentrations in each sample well, using 1:3 serial dilution for a total of 8 concentration points.

[7] = target: T7, Jnk1 (Homo sapiens, UniProt P45983); assay: AlphaScreen kinase assay, Jnk1; conditions: read-out: IC50, activity toward kinase Jnk1
T7 construct: purchased Upstate Biotechnology

[8] = target: T8, FGFR1 (Homo sapiens, UniProt P11362, C488A/C584S); assay: AlphaScreen kinase assay, FGFR1; conditions: read-out: IC50, activity toward kinase FGFR
T8 construct: P1351.pET N6 BI-PTP FGFR A458-E765-X C488A, C584S; made in house; host or cells: E. coli (PTP1B co-expressed)

[9] = target: T9, Jnk3 (Homo sapiens, UniProt P53779); assay: AlphaScreen kinase assay, Jnk3; conditions: read-out: IC50, activity toward kinase Jnk3
T9 construct: purchased Upstate Biotechnology
Procedure: AlphaScreen assays were done using compounds dissolved in DMSO to a concentration of 20 mM. The compounds were diluted accordingly to the desired final concentrations in each sample well, using 1:3 serial dilution for a total of 8 concentration points. Plates were prepared such that each kinase reaction is 20 μl in 1× kinase buffer, 5% DMSO and 10 μM ATP. After incubation of the kinase reaction for 1 hour at room temperature, 5 μl of donor beads in stop buffer (50 mM EDTA in 1× kinase buffer) was added, the sample was mixed and incubated for 20 minutes at room temperature before adding 5 μl of acceptor beads in stop buffer. The samples were incubated for 60 minutes at room temperature and the signal per well was read on AlphaQuest reader.

[10] = target: T10, Flt1 (Homo sapiens, UniProt P17948); assay: AlphaScreen kinase assay, Flt1; conditions: read-out: IC50, activity toward kinase Flt1
T10 construct: P1826.pETN6 BI-PTP FLT1 M799-D1165-X WT; His6 (N); made in house; host or cells: E. coli (PTP1B co-expressed)
T10 sequence (P17948 with tags, fused parts or gaps): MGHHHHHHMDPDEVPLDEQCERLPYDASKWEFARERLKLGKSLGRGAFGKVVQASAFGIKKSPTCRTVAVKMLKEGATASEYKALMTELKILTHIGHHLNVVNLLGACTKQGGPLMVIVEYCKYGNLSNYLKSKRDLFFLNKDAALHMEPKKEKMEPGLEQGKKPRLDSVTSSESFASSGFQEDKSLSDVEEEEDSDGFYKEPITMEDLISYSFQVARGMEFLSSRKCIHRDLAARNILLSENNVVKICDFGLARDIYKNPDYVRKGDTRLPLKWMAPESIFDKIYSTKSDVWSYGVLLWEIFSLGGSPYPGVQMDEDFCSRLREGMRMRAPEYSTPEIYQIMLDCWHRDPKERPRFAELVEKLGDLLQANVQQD

[11] = target: T11, Kdr (Homo sapiens, UniProt P35968); assay: Z'-Lyte FRET kinase assay (Invitrogen), Kdr; conditions: read-out: IC50, activity toward kinase Kdr
T11 construct: purchased Invitrogen (assay run by Invitrogen)

[12] = target: T12, Kit (Homo sapiens, UniProt P10721); assay: AlphaScreen kinase assay, Kit; conditions: read-out: IC50, activity toward kinase Kit
T12 construct: P1332.N6 BI PTP KIT M552-K948-X COD; His6 (N); made in house; host or cells: E. coli (PTP1B co-expressed)

[13] = target: T13, Fms (Homo sapiens, UniProt P07333); assay: AlphaScreen kinase assay, Fms; conditions: read-out: IC50, activity toward kinase Fms
T13 construct: purchased Upstate Biotechnology

[14] = target: T14, Pyk2 (Homo sapiens, UniProt Q14289); assay: AlphaScreen kinase assay, Pyk2; conditions: read-out: IC50, activity toward kinase Pyk2
T14 construct: purchased Upstate Biotechnology

[15] = target: MAP4K4 (Homo sapiens, UniProt O95819); assay: AlphaScreen kinase assay, MAP4K4; conditions: read-out: IC50, activity toward kinase MAP4K4
[16] = target: T15, Stk6 (Homo sapiens, UniProt O14965); assay: Z'-Lyte FRET kinase assay (Invitrogen), Stk6; conditions: read-out: IC50, activity toward kinase Stk6
T15 construct: purchased Invitrogen (Carlsbad, Calif.), screening service
T15 sequence (O14965 1-403): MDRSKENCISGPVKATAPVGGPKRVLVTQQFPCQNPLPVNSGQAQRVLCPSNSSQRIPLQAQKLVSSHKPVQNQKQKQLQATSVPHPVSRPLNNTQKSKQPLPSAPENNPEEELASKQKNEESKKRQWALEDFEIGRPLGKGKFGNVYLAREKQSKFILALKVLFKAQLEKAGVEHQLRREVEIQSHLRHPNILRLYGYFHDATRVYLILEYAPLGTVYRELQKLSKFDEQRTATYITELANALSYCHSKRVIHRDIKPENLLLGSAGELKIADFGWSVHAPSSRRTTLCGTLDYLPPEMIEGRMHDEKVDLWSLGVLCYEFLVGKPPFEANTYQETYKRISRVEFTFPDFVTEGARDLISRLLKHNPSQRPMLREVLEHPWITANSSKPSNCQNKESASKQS

[17] = target: T16, Src (Homo sapiens, UniProt P12931); assay: AlphaScreen kinase assay, Src; conditions: read-out: IC50, activity toward kinase Src
T16 construct: P1144. pET-N6 BI-PTP SRC V86-L536-X; made in house

[18] = target: T17, Fak (Homo sapiens, UniProt Q05397); assay: AlphaScreen kinase assay, Fak; conditions: read-out: IC50, activity toward kinase Fak
T17 construct: P1358.pFastBacHtb FAK S411-Q686-X; His6 with pFastBacHTb leader (TEV site) (N); made in house; host or cells: Sf9 (baculovirus)

[19] = target: T18, Zap70 (Homo sapiens, UniProt P43403); assay: AlphaScreen kinase assay, Zap70; conditions: read-out: IC50, activity toward kinase Zap70
T18 construct: P1868.pFastBac1 ZAP70 D327-G606 HIS, WT; His7 (HHHHHHH) (C); made in house
T18 sequence (P43403 with tags, fused parts or gaps): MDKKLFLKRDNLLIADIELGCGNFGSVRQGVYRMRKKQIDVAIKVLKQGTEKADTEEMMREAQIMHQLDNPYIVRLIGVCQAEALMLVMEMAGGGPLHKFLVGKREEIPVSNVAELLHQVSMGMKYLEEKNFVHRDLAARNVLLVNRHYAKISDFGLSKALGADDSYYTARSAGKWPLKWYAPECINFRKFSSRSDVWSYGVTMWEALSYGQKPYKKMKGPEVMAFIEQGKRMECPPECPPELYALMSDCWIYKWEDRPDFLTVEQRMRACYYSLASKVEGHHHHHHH
Method in brief: as §1

Measured: IC50

T8 sequence (P11362 458-765 C488A/C584S): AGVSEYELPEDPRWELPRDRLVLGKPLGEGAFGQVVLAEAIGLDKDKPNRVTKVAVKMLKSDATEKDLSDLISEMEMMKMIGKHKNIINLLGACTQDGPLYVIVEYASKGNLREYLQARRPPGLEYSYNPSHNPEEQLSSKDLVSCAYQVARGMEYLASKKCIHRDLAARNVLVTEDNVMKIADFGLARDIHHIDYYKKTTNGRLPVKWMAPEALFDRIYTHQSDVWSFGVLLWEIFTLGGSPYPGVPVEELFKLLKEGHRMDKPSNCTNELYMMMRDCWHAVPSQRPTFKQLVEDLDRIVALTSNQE
T12 sequence (P10721 with tags, fused parts or gaps): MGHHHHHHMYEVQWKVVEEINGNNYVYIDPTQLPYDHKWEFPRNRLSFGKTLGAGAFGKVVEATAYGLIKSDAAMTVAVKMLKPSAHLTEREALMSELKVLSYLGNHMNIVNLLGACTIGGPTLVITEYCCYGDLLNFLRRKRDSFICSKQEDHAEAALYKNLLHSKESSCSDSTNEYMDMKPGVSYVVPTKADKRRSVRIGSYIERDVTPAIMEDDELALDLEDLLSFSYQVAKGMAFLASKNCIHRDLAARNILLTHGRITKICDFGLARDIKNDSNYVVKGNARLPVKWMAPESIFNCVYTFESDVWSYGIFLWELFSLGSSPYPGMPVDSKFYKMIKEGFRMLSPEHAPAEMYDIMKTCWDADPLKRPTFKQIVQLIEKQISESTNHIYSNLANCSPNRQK
T17 sequence (Q05397 411-686): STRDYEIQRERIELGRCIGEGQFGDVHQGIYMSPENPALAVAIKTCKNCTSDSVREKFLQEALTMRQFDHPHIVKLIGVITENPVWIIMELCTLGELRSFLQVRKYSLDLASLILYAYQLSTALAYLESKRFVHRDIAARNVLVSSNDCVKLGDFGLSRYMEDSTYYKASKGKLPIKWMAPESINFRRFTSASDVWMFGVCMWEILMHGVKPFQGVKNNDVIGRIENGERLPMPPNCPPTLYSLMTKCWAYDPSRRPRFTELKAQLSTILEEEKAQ
T3 sequence (P04049 whole entry): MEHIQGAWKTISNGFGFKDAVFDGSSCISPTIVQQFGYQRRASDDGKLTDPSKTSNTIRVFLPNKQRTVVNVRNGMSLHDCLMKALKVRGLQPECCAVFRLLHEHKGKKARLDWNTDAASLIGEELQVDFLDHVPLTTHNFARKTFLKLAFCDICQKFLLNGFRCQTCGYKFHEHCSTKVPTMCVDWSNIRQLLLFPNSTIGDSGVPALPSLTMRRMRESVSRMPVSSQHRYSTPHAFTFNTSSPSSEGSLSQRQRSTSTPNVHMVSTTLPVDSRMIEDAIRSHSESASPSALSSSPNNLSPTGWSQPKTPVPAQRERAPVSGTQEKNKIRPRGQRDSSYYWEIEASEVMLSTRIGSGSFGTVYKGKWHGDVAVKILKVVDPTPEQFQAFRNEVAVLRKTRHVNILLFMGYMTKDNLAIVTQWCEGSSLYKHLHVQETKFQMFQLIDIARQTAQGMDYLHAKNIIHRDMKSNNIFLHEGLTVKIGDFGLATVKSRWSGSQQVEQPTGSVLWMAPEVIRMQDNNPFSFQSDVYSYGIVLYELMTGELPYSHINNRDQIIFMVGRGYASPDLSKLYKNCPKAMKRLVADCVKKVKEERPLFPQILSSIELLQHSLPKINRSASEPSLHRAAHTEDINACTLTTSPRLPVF
T6 sequence (P08581 with tags, fused parts or gaps): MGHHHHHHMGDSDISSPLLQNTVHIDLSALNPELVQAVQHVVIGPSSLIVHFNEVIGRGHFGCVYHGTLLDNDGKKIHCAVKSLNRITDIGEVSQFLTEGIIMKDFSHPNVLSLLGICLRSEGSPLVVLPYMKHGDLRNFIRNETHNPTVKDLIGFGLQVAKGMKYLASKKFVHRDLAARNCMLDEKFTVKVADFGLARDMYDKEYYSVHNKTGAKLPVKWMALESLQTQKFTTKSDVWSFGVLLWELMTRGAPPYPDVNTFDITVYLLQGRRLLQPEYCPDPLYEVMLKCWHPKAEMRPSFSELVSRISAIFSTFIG
T13 sequence (P07333 20-972): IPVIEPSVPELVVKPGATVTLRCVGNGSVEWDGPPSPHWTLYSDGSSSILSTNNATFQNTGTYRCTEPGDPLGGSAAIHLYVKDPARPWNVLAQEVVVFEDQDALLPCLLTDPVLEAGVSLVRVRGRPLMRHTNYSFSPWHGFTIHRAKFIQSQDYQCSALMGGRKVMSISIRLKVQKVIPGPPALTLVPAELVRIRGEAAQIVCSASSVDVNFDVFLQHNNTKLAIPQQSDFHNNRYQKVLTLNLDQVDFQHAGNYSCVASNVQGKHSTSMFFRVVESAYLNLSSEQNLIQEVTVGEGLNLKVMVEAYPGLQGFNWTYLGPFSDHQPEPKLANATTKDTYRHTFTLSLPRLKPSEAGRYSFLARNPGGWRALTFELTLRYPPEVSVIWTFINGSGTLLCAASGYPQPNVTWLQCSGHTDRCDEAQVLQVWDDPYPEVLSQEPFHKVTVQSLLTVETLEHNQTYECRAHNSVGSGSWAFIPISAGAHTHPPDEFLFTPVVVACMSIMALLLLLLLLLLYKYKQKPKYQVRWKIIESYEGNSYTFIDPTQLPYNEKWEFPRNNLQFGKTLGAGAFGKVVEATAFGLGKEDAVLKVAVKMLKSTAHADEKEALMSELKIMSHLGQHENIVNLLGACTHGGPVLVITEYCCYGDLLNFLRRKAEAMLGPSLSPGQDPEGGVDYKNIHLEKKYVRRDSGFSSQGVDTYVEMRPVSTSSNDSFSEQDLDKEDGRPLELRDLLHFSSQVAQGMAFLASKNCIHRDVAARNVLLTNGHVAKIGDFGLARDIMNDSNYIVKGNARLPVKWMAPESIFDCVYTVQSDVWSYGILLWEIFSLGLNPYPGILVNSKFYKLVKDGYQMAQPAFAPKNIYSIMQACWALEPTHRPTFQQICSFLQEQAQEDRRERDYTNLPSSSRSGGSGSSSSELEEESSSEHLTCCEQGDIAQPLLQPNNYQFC
T5 sequence (P15056 with tags, fused parts or gaps V600E): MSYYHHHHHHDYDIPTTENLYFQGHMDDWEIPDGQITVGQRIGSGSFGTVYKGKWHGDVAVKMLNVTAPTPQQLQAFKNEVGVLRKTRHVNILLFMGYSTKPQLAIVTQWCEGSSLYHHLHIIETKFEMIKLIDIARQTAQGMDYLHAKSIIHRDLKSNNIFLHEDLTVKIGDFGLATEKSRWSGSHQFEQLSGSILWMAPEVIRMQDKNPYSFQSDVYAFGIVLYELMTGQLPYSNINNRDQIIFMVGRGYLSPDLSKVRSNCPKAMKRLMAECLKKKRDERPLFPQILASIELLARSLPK
T1 sequence (P15056 whole entry): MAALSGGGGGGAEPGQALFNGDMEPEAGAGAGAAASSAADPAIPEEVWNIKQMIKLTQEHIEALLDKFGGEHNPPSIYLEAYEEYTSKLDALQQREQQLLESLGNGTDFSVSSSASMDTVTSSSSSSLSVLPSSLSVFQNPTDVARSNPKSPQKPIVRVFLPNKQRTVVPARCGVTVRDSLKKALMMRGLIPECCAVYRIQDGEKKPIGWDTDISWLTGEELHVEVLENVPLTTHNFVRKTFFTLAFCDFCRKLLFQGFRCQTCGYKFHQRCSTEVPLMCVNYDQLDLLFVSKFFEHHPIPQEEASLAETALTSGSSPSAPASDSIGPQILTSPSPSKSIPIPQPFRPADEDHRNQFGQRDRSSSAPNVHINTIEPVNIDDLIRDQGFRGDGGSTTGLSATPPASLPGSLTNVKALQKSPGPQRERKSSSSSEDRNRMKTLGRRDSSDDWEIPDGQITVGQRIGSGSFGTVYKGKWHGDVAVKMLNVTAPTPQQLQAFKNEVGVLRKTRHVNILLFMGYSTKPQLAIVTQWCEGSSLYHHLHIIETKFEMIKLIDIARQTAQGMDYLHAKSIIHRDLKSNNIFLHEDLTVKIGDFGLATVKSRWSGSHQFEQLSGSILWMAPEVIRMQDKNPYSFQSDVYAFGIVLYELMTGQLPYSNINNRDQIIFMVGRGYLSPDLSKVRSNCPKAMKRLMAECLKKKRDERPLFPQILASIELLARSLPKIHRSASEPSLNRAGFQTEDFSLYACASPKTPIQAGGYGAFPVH
T4 sequence (P45984 whole entry): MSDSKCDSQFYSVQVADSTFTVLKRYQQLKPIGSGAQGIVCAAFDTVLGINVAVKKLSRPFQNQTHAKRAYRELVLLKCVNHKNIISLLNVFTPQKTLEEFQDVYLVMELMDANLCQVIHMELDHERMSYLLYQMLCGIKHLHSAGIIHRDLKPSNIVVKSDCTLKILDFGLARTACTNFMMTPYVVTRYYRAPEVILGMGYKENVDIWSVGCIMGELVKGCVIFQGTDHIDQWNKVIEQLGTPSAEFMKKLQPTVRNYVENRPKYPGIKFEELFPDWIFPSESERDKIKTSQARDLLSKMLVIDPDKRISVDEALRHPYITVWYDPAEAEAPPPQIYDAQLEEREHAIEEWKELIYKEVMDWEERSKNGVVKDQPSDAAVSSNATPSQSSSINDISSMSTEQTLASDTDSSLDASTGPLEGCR
T7 sequence (P45983 whole entry): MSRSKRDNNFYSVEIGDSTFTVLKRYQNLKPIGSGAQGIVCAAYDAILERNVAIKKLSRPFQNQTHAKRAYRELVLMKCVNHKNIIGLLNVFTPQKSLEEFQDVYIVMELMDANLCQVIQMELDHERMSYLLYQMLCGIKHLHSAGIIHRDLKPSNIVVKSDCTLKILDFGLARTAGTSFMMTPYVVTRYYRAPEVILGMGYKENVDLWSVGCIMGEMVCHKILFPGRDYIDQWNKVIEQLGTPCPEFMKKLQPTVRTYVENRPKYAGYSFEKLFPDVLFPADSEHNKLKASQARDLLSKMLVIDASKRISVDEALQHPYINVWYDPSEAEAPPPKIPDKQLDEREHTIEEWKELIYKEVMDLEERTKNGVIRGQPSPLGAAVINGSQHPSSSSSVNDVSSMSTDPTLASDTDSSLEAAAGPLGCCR

O=C(c1c(F)ccc(O)c1F)c1c[nH]c2ncc(-c3cccnc3)cc12 [Compound P-0066, (2,6-Difluoro-3-hydroxy-phenyl)-(5-pyridin-3-yl-1H-pyrrolo[2,3-b]pyridin-3-yl)-methanone]
≤ 10 µM: [1] | [2] | [3] | [4] | [5] | [6] | [7] | [8] | [9]

CS(=O)(=O)Nc1ccc(F)c(C(=O)c2c[nH]c3ncc(-c4ccccc4)cc23)c1F [Compound P-0184, N-[2,4-Difluoro-3-(5-phenyl-1H-pyrrolo[2,3-b]pyridine-3-carbonyl)-phenyl]-methanesulfonamide]
not listed: [14] | [15] | [16] | [17] | [18] | [19]
≤ 10 µM: all other assays above

O=C(Nc1ccc(Cc2c[nH]c3ncccc23)cc1)Nc1ccc(Cl)c(C(F)(F)F)c1 [Compound P-0369]
not listed: [4] | [7] | [9] | [10] | [16] | [17] | [18] | [19]
≤ 10 µM: all other assays above

Fc1ccc(-c2ccnc3[nH]cc(Sc4cccs4)c23)cc1 [Compound P-0419]
≤ 10 µM: [16] | [6]

CS(=O)(=O)Nc1ccc(F)c(C(=O)c2c[nH]c3ncc(-c4cccc(C(N)=O)c4)cc23)c1F [Compound P-0721, 3-[3-(2,6-Difluoro-3-methanesulfonylamino-benzoyl)-1H-pyrrolo[2,3-b]pyridin-5-yl]-benzamide]
not listed: [9] | [11] | [14] | [15] | [16] | [19]
≤ 10 µM: all other assays above

CS(=O)(=O)Nc1ccc(F)c(C(=O)c2c[nH]c3ncccc23)c1F [Compound P-0811]
≤ 10 µM: [2] | [3] | [5] | [15] | [13] | [6] | [18] | [8]

Clc1ccc(Nc2ccnc3[nH]ccc23)cc1Cl [Compound P-0842]
≤ 10 µM: [19] | [1] | [3] | [5] | [6]

CCOc1ccccc1-c1ccnc2[nH]ccc12 [Compound P-1114]
≤ 10 µM: [6] | [18]

CS(=O)(=O)Nc1cccc(-c2cnc3[nH]cc(C(=O)c4c(F)ccc(OC(F)F)c4F)c3c2)c1 [Compound P-1527, N-{3-[3-(3-Difluoromethoxy-2,6-difluoro-benzoyl)-1H-pyrrolo[2,3-b]pyridin-5-yl]-phenyl}-methanesulfonamide]
≤ 10 µM: [1] | [17] | [5] | [10] | [12] | [13] | [6] | [8]
